Experimental findings from patent US20250255945A1, “CLICK CHEMISTRY HLA POLYPEPTIDES” (IMMUNEO Therapeutics GmbH, priority 2024, published 2025) are described below.

The subject of this assay is peripheral blood mononuclear cells (PBMCs). Nature of the assay: IFN-γ ELISPOT assay (ex vivo) with subject PBMCs. It is filed as cell-based, human. Here is the method: IFNγ ELISpot analysis (for protocol see A. Lalvani, R. Brookes, S. Hambleton, W. J. Britton, A. V. S. Hill, A. J. McMichael, J Exp Med 1997; 186 (6): 859-865) was performed ex vivo (without further in vitro culturing for expansion) using PBMCs depleted of CD4+ and enriched for CD8+ T cells (CD8+ effectors), or depleted of CD8+ and enriched for CD4+ T cells (CD4+ effectors). Tests were performed in duplicate and with a positive and negative control, Multiscreen filter plates (Merck Millipore) pre-coated with IFNγ-specific antibodies (ELISpotPro kit, Mabtech). 267.000 Cells were used per plate. Plates were scanned using an AID Classic Robot ELISPOT Reader and analyzed by AID ELISPOT 7.0 software (AID Autoimmun Diagnostika). Antigen Peptides (except negative and positive control group) were done in duplicates, spot counts were taken as mean values of each duplicate.
The immunogenicity of each of the six peptides was analyzed by IFN-γ secretion by subject peripheral blood mononuclear cells (PBMCs) using ELIspot assay. […]
The immunogenicity of each peptide was assessed in peripheral blood mononuclear cells (PBMCs) from patients and using the IFN-γ-ELISPOT assay. ELISPOT results were considered positive if the number of spots was at least 2-fold higher than the negative control (medium) and at least 50 spots were detected. […] We also tested the effect of delivery aiding peptides (DACP-1) and peptide extension by overlapping tandemization and tandemization on the immunogenicity of the epitopes.

Where [1] appears, read: Table 6, further HTAPPs, HTAPP-DACPs and reference sequences.
The mark [2] stands for this setting: Table 1, HTAPPs, response in ELISPOT experiments.
[3] abbreviates: Table 4, HTAPP-DACP related to group therapy.
The mark [4] stands for this setting: Table 2, HTAPP-DACP, response in ELISPOT experiments.
Setting [5] is: Table 5, HTAPP-DACP related to group therapy.

On to “82 (LEKLYLYFNKISKIENLEKLIKRQIKIWFQNRRMKWKK) [compound 82]”, for which the “Elispot [nspots/pM]” value under setting [1] is reported as 305,0 nspots/pM.

As for 1 (KLVVVGAVGVGKSALTI) [compound 1], under setting [2], the “Elispot [nspots/pM]” value is reported as 32,5 nspots/pM.

Turning to “81 (LTPKKLQCVDLHVISNDRQIKIWFQNRRMKWKK) [compound 81]”, the “Elispot [nspots/pM]” value under setting [1] is given as 272,5 nspots/pM.

Turning to “49 (LLDILDTAGHEEYSAMRDQRQIKIWFQNRRMKWKK) [compound 49]”, the “Elispot [nspots/pM]” value under setting [3] was 161,7 nspots/pM.

Turning to “19 (LANSPDLSHLAYYVTKVKEEDAFRQIKIWFQNRRMKWKK) [compound 19]”, under setting [4], the “Elispot [nspots/pM]” value is listed as 430,5 nspots/pM.

On to 10 (LFKDLGLPARTVSTTF) [compound 10], for which the “Elispot [nspots/pM]” value under setting [2] was 143,5 nspots/pM.

Turning to “63 (SQHMTEVVRHCPHHERCSDRQIKIWFQNRRMKWKK) [compound 63]”, the “Elispot [nspots/pM]” value under setting [5] was 88,3 nspots/pM.

For the substance “57 (NSSCMGGMNQRPILTIITLRQIKIWFQNRRMKWKK) [compound 57]”, under setting [5], the “Elispot [nspots/pM]” value is listed as 102,5 nspots/pM.

On to 75 (SAANIRALNVPPSLA) [compound 75], for which, under setting [1], the “Elispot [nspots/pM]” value is listed as 196,0 nspots/pM.

“23 (MLFSNITPKAAYSPLTGGNMAFRQIKIWFQNRRMKWKK) [compound 23]”: the “Elispot [nspots/pM]” value under setting [4] is 285,0 nspots/pM.

For “34 (DSTPPPGTRVLAMAIYKQSQRQIKIWFQNRRMKWKK) [compound 34]”, the “Elispot [nspots/pM]” value under setting [3] was 35,8 nspots/pM.

As for “52 (LLGRNSFEVLVCACPGRDRRQIKIWFQNRRMKWKK) [compound 52]”, the “Elispot [nspots/pM]” value under setting [3] is on record as 275,0 nspots/pM.

As to “48 (KVKIPVAIKTSPKANKEIRQIKIWFQNRRMKWKK) [compound 48]”, the “Elispot [nspots/pM]” value under setting [3] was 39,2 nspots/pM.

In the case of “2 (LANSPDLSHLAYYVTKVKEEDAF) [compound 2]”, under setting [2], the “Elispot [nspots/pM]” value is given as 419,5 nspots/pM.

For the substance “KKIRKPRTIYSSLQLQAAAYGIYDALFDIESKVDPSK [SEQ-ID-No.: 8]”, where the note is “tandem peptide in relation to the more immunogenic single HTAP (SEQ-ID-No.: 77 / 78)”, the “increase in Elispot count” value is “more than 237%”.

“54 (MLPQIPFLLLVSLNLVHGVFRQIKIWFQNRRMKWKK) [compound 54]”: the “Elispot [nspots/pM]” value under setting [5] is 246,7 nspots/pM.

On to “40 (HTLYGHTSTVCCMHLHEKRVRQIKIWFQNRRMKWKK) [compound 40]”, for which, under setting [3], the “Elispot [nspots/pM]” value is listed as 95,0 nspots/pM.

Take “17 (QSYPGSASLAAYSGMPRISKL) [compound 17]”: under setting [2], the “Elispot [nspots/pM]” value is on record as 202,5 nspots/pM.

For the substance 4 (ETNFKSLFHDLFQKVEE) [compound 4], the “Elispot [nspots/pM]” value under setting [2] is reported as 233,5 nspots/pM.

Regarding “55 (MTEYKLVVVGARGVGKSALRQIKIWFQNRRMKWKK) [compound 55]”, the “Elispot [nspots/pM]” value under setting [5] is 44,2 nspots/pM.

Consider “60 (PSDQDLLRCHVLTSGIFETRQIKIWFQNRRMKWKK) [compound 60]”, for which the “Elispot [nspots/pM]” value under setting [5] is reported as 163,3 nspots/pM.

As to “43 (IGHKVDAVFMKDGFFYFFHGTRQYRQIKIWFQNRRMKWKK) [compound 43]”, under setting [3], the “Elispot [nspots/pM]” value is listed as 134,2 nspots/pM.

For the substance “22 (IKPRILGFDTPHYWLCRQIKIWFQNRRMKWKK) [compound 22]”, the “Elispot [nspots/pM]” value under setting [4] was 477,0 nspots/pM.

For the substance “9 (LPVMLLIVARPVKLAAFPTSLSD) [compound 9]”, the “Elispot [nspots/pM]” value under setting [2] is 289,5 nspots/pM.

On to 16 (RERRVASWAMSFERL) [compound 16], for which, under setting [2], the “Elispot [nspots/pM]” value was 326,5 nspots/pM.

As for “80 (NFMLNQNVMLSVKGITKNVHTRQIKIWFQNRRMKWKK) [compound 80]”, the “Elispot [nspots/pM]” value under setting [1] was 232,5 nspots/pM.

For the substance “59 (PSDQDLLRCCVLTSGIFETRQIKIWFQNRRMKWKK) [compound 59]”, the “Elispot [nspots/pM]” value under setting [5] is listed as 100,8 nspots/pM.

In the case of “21 (ETNFKSLFHDLFQKVEERQIKIWFQNRRMKWKK) [compound 21]”, under setting [4], the “Elispot [nspots/pM]” value is listed as 334,0 nspots/pM.

For the substance 76 (PQELWHFLTQNLSLPN) [compound 76], under setting [1], the “Elispot [nspots/pM]” value is 470,5 nspots/pM.

Turning to “31 (QSYPGSASLAAYSGMPRISKLRQIKIWFQNRRMKWK) [compound 31]”, the “Elispot [nspots/pM]” value under setting [4] is given as 415,0 nspots/pM.

Consider “13 (LSKNLVAQISALALQLAAYGNSITGIISSVLGHIS) [compound 13]”, for which the “Elispot [nspots/pM]” value under setting [2] is reported as 205 nspots/pM.
